Reference: ChEMBL document CHEMBL5325480, “Discovery and Biosynthetic Studies of a Highly Reduced Cinnamoyl Lipid, Tripmycin A, from an Endophytic Streptomyces sp” (J Nat Prod, 2023)
Calls of active or inactive are those of the source. The calls are words filed in the database; no cut-off is given here.

Tests used:
A549 = assay: Cytotoxicity against human A549 cells assessed as inhibition of cell growth incubated for 72 hrs by CCK-8 assay; format: functional, cell-based; conditions: A549, 72 h
Caco-2 = assay: Cytotoxicity against human Caco-2 cells assessed as inhibition of cell growth incubated for 72 hrs by CCK-8 assay; format: functional, cell-based; conditions: Caco-2, 72 h
HepG2 = assay: Cytotoxicity against human HepG2 cells assessed as inhibition of cell growth incubated for 72 hrs by CCK-8 assay; format: functional, cell-based; conditions: HepG2, 72 h
Aspergillus cristatus = assay: Antimicrobial activity against Aspergillus cristatus CB10002 incubated for 24 hrs by absorbance based analysis; format: functional, organism-based
MDA-MB-231 = assay: Cytotoxicity against human MDA-MB-231 cells assessed as inhibition of cell growth incubated for 72 hrs by CCK-8 assay; format: functional, cell-based; conditions: MDA-MB-231, 72 h
Saccharomyces cerevisiae = assay: Antimicrobial activity against Saccharomyces cerevisiae AS2.399 incubated for 24 hrs by absorbance based analysis; format: functional, organism-based
Aspergillus flavus = assay: Antimicrobial activity against Aspergillus flavus AS3.3950 incubated for 24 hrs by absorbance based analysis; format: functional, organism-based
Escherichia coli = assay: Antimicrobial activity against Escherichia coli DH5alpha incubated for 24 hrs by absorbance based analysis; format: functional, organism-based
Staphylococcus aureus = assay: Antimicrobial activity against Staphylococcus aureus ATCC 29213 incubated for 24 hrs by absorbance based analysis; format: functional, organism-based
Aspergillus ochraceus = assay: Antimicrobial activity against Aspergillus ochraceus AS3.3876 incubated for 24 hrs by absorbance based analysis; format: functional, organism-based

| SMILES | IC50 (A549) [µM] | IC50 (Caco-2) [µM] | IC50 (HepG2) [µM] | Activity (Aspergillus cristatus) | IC50 (MDA-MB-231) [µM] | Activity (Saccharomyces cerevisiae) | Activity (Aspergillus flavus) | Activity (Escherichia coli) | Activity (Staphylococcus aureus) | Activity (Aspergillus ochraceus) |
| --- | --- | --- | --- | --- | --- | --- | --- | --- | --- | --- |
| C=CCCCCCCCCCCC(=O)O | 120 | 140 |  |  |  |  |  |  |  |  |
| Cc1ccccc1/C=C/CCC(=O)O | 64 | > 1000 | 740 | inactive | 190 | inactive | inactive | inactive | inactive | inactive |
| CCCC/C=C\CCCCCCCC(=O)O [MYRISTOLEIC ACID] | 270 | 270 |  |  |  |  |  |  |  |  |
| CCCCCCCCCCCCC(=O)O [TRIDECANOATE] | 250 | 280 |  |  |  |  |  |  |  |  |
| CCCCCCCCCCCCCC(=O)O [MYRISTIC ACID] | 200 | > 1000 |  |  |  |  |  |  |  |  |
| Cc1ccccc1/C=C/CCCCCCCCCCC(=O)O | 0.35 | 4.6 | 2.2 | inactive | 0.45 | inactive | inactive | inactive | inactive | inactive |
